Measurements from BindingDB's records for doi:10.1021/jm00031a001 (Fisons, 1994).

Assays:
[1] = target: Phospholipase A2 group IB (pancreatic, Sus scrofa); test: In vitro activity against porcine pancreatic phospholipase-A2 (PLA2) and monomerically dispersed substrate
[2] = target: Phospholipase A2 group IB (Sus scrofa); test: In vitro activity against porcine pancreatic phospholipase-A2 (PLA2) and micellar substrate with deoxycholate (DOC)

Compound	IC50 [1] [nM]	IC50 [2] [nM]
CCCCCC/C=C/CC(=O)N[C@@H](CC(=O)O)CC(C)C [(R)-3-((S)-(E)-Dec-3-enoylamino)-5-methyl-hexanoic acid]	300	8500
CCCCCCCCCC(=O)N[C@@H](CC(=O)O)CC(C)C [(R)-3-((S)-Decanoylamino)-5-methyl-hexanoic acid]	1400	15000
CCCCCCCCCCCCCCCC(=O)N[C@@H](CC(=O)O)CC(C)C [(R)-3-((S)-Hexadecanoylamino)-5-methyl-hexanoic acid]	190	7300
CCCCCC/C=C/CC(=O)N[C@H](CSc1ccc2ccccc2c1)CC(=O)O [(S)-3-((S)-(E)-Dec-3-enoylamino)-4-(naphthalen-2-ylsulfanyl)-butyric acid]	23	790
CCCCCC/C=C/CC(=O)N[C@H](CSc1ccccc1)CC(=O)O [(S)-3-((S)-(E)-Dec-3-enoylamino)-4-phenylsulfanyl-butyric acid]	95	2200
CCCCCCCCCCCCCCCC(=O)N[C@@H](CCC(=O)O)CC(C)C [(S)-4-((S)-Hexadecanoylamino)-6-methyl-heptanoic acid]	200	4500
CCCCCCCCCCCCCCCC(=O)N[C@@H](CCCC(=O)O)CC(C)C [(S)-5-((S)-Hexadecanoylamino)-7-methyl-octanoic acid]	1300	19000
